Entries after “also recorded” stand apart in the source; their conditions may differ.
Experiments:
[1] = tested on: experimental autoimmune encephalomyelitis, clinical score; experiment: Mouse experimental autoimmune encephalomyelitis assay (EAE); format: in vivo; conditions: C57Bl/6 mice, prophylactic oral dosing regimen
anti-dsDNA antibodies = experiment: MRL/lpr lupus model: anti-dsDNA antibody titers (ELISA); format: in vivo; conditions: MRL/lpr mice, p.o. daily
Protocol: (§1) MRL/lpr is a spontaneous model of lupus. Male MRL/lpr mice (Jackson Laboratory) at the age of 12-14 weeks were enrolled for the study (N=12). Mice were dosed p.o. daily with vehicle (18.4% (w/v) hydroxypropyl-b-cyclodextrin in 13.8 mM citric acid) or with Example 681 at 0.06, 0.3, 1.5 mg/kg. Mice were bled every other week for anti-dsDNA antibodies measured by ELISA using pooled serum from diseased MRL/lpr mice as a positive comparator in each assay. The data were expressed in arbitrary units as a ratio of the titer of the test serum to the titer of the pooled MRL/lpr immune serum.

kidney histology score = experiment: MRL/lpr lupus model: kidney histological analysis; format: in vivo; conditions: MRL/lpr mice, p.o. daily
Protocol: as §1
At the end of study, one kidney was collected into 10% neutral buffered formalin and ZincTris fixatives. Fixed tissues were processed into paraffin blocks, sectioned at […], and stained with H&E or PASH. Kidney sections were graded using following criteria: Glomerular Damage: 1. Mesangial matrix thickening, cell proliferation, 2. Crescent formation, cellular deposits/casts in Bowman's space, 3. Cellular infiltration, mononuclear cells in glomerular tufts, 4. Fibrosis of Bowman's capsule. Tubular damage: 1. Infiltration of mononuclear cells, 2. Severity of tubular damage, 3. Protein casts. Tubulo-interstitial damage: 1. Fibrosis, 2. Infiltration of mononuclear cells. Each subcategory was assigned a score from 0-4, with the scores for glomerular indices representing the mean from 20 glomeruli per kidney. […]

S1P1 = S1P1 (Homo sapiens (Human), UniProt P21453); experiment: Receptor [35S]GTPγS binding assay (S1P1 GTPγS), membranes from S1P1/CHO cells; format: biochemical; conditions: result in words
Protocol: Compounds were loaded in a 384 Falcon v-bottom plate (0.5 μl/well in a 11 point, 3-fold dilution). Membranes prepared from S1P1/CHO cells or EDG3-Gal5-bla HEK293T cells (EDG3 equivalent S1P3) were added to the compound plate (40 μl/well, final protein 3 μg/well) with MULTIDROP®. […] 40 μl of the [^35S] GTP solution was added to the compound plate with a final concentration of 0.2 nM. The reaction was kept at room temperature for 45 min. At the end of incubation, all the mixtures in the compound plate were transferred to Millipore 384-well FB filter plates via the VELOCITY11® Vprep liquid handler. The filter plate was washed with water 4 times by using the manifold Embla plate washer and dried at 60° C. for 45 min. MicroScint 20 scintillation fluid (30 μl) was added to each well for counting on the Packard TOPCOUNT®.
A larger value for the GTPγS S1P3 EC50 value indicated less activity in the GTPγS S1P3 binding assay.

S1P3 (EDG3) = S1P3 (EDG3) (Homo sapiens (Human), UniProt Q99500); experiment: Receptor [35S]GTPγS binding assay (S1P3 GTPγS), membranes from EDG3-Gal5-bla HEK293T cells; format: biochemical; conditions: GTPγS S1P1 versus S1P3, result in words
Protocol: Compounds were loaded in a 384 Falcon v-bottom plate (0.5 μl/well in a 11 point, 3-fold dilution). Membranes prepared from S1P1/CHO cells or EDG3-Gal5-bla HEK293T cells (EDG3 equivalent S1P3) were added to the compound plate (40 μl/well, final protein 3 μg/well) with MULTIDROP®. [^35S]GTP (1250 Ci/mmol, Perkin Elmer) was diluted in assay buffer: 20 mM HEPES, pH7.5, 10 mM MgCl2, 150 mM NaCl, 1 mM EGTA(ethylene glycol tetraacetic acid), 1 mM DTT (Dithiothreitol), 10 μM GDP, 0.1% fatty acid free BSA, and 10 μg/ml Saponin to 0.4 nM. 40 μl of the [^35S] GTP solution was added to the compound plate with a final concentration of 0.2 nM. The reaction was kept at room temperature for 45 min. At the end of incubation, all the mixtures in the compound plate were transferred to Millipore 384-well FB filter plates via the VELOCITY11® Vprep liquid handler. The filter plate was washed with water 4 times by using the manifold Embla plate washer and dried at 60° C. for 45 min. MicroScint 20 scintillation fluid (30 μl) was added to each well for counting on the Packard TOPCOUNT®.
A smaller value for GTPγS S1P EC50 value indicated greater activity for the compound in the GTPγS S1P binding assay. A larger value for the GTPγS S1P3 EC50 value indicated less activity in the GTPγS S1P3 binding assay. […]

[2] = tested on: adjuvant-induced arthritis, hind paw volume; experiment: Rat adjuvant induced arthritis assay (AA); format: in vivo, Lewis rats; conditions: Lewis rat, prophylactic oral dosing regimen
Protocol: The rat adjuvant-induced arthritis model is an animal model for human rheumatoid arthritis. Male Lewis rats (150-175 g; Harlan, n=8 treatment group) were immunized at the base of the tail with 100 μl of 10 mg/ml freshly ground Mycobacterium butyricum (Difco Laboratories) in incomplete Freund's adjuvant (sigma). Animals were dosed once daily with the test article (as a solution or suspension in the vehicle) or vehicle alone (polyethylene glycol 300, “PEG300”) starting from the day of immunization. The volumes of their hind paws were measured in a water displacement plethysmometer (Ugo Basile, Italy). The baseline paw measurements were taken before onset of the disease (between day 7 to day 10). The paw measurements were then taken three times a week until the end of the study on day 20 to 21. All procedures involving animals were reviewed and approved by the Institutional Animal Care Use Committee.

[3] = tested on: experimental autoimmune encephalomyelitis, clinical score; experiment: Rat experimental autoimmune encephalomyelitis (EAE); format: in vivo, Lewis rats; conditions: Lewis rat, prophylactic oral dosing regimen
Protocol: Female Lewis rats (150-200 g; Harlan) were immunized at the base of the tail with 0.1 ml of a complete Freund's adjuvant emulsion containing 0.5 mg/mL guinea pig myelin basic protein (Genemed Synthesis) and 2 mg/mL Mycobacterium butyricum (Difco). Beginning on Day 7, rats (n=11/group) were scored individually at least 3×/wk according to the following scheme: [table] Average clinical scores were calculated for each treatment group on each day of assessment.

Chain of S1P1 (P21453 whole entry): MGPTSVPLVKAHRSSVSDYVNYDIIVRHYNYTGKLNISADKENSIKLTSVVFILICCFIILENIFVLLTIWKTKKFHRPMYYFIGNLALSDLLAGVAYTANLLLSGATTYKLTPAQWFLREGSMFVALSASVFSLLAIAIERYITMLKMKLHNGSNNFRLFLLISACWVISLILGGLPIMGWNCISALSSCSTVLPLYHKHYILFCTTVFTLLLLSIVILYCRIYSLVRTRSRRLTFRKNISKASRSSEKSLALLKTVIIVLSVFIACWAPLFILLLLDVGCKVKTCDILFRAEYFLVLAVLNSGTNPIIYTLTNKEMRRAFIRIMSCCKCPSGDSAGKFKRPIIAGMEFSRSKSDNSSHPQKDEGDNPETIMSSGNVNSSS
Chain of S1P3 (EDG3) (Q99500 whole entry): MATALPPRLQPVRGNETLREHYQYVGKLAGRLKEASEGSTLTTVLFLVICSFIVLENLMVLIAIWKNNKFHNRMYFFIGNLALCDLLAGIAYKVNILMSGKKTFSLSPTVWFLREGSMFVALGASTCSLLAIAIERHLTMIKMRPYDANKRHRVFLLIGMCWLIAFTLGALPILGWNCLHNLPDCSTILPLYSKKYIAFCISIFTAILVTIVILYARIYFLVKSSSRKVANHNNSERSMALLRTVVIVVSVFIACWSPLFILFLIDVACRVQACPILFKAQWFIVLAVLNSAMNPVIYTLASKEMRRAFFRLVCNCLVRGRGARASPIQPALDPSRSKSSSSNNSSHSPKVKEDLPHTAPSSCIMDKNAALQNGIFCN

activity as an agonist of S1P1 (S1P1)	Compound	inhibition of disease progression as measured by clinical scores [1]	inhibition of disease progression as measured by reduced paw swelling [2]	further results
–	COc1ccccc1CC[C@@H]1CCc2cc([C@H]3CC[C@](N)(CO)C3)ccc2C1 [Example 681, ((1R,3S)-1-amino-3-((S)-6-(2-methoxyphenethyl)-5,6,7,8-tetrahydronaphthalen-2-yl)cyclopentyl)methanol]	showed inhibition of disease progression; also recorded: inhibit disease progression	–	inhibition of disease progression as measured by anti-dsDNA titers (anti-dsDNA antibodies): showed inhibition of disease progression; inhibition of disease progression as measured by kidney histology (kidney histology score): showed inhibition of disease progression
possessed activity as an agonist of S1P	COCCCCCC1CCc2cc([C@H]3CC[C@](N)(COP(=O)(O)O)C3)ccc2C1 (single isomer, unassigned) [Example 689]	–	–	selectivity over S1P3 (S1P3 (EDG3)): selective over S1P3
–	COCCCCC[C@H]1CCc2cc([C@H]3CC[C@](N)(CO)C3)ccc2C1 [Example 672, ((1R,3S)-1-amino-3-((S)-6-(5-methoxypentyl)-5,6,7,8-tetrahydronaphthalen-2-yl)cyclopentyl)methanol]	–	showed inhibition of disease progression	–
–	CCOCCC[C@@H]1CCc2cc([C@H]3CC[C@](N)(CO)C3)ccc2C1 [Example 679, ((1R,3S)-1-amino-3-((S)-6-(3-ethoxypropyl)-5,6,7,8-tetrahydronaphthalen-2-yl)cyclopentyl)methanol]	showed inhibition of disease progression; also recorded: inhibit disease progression	showed inhibition of disease progression	inhibition of disease progression as measured by reduced clinical scores [3]: showed inhibition of disease progression
possessed activity as an agonist of S1P1	COc1ccccc1CCC1CCc2cc([C@H]3CC[C@](N)(COP(=O)(O)O)C3)ccc2C1 (single isomer, unassigned) [Example 697]	–	–	–

Reference: patent US10709719B2, “Substituted bicyclic compounds” (BRISTOL-MYERS SQUIBB COMPANY, priority 2014, dated 2020)
